# Laboratory results published in patent US6013768A, “Kainate-binding human CNS receptors of the EAA1 family” (priority 1997, dated 2000).
# Biological target: T1, human EAA1a receptor (Homo sapiens, UniProt Q16099)
# T1 construct: expressed in transfected cells; host or cells: COS-1 (ATCC CRL 1650), transient expression, plasmid pcDNA1/humEAA1a
# T1 sequence (Q16099 21-956): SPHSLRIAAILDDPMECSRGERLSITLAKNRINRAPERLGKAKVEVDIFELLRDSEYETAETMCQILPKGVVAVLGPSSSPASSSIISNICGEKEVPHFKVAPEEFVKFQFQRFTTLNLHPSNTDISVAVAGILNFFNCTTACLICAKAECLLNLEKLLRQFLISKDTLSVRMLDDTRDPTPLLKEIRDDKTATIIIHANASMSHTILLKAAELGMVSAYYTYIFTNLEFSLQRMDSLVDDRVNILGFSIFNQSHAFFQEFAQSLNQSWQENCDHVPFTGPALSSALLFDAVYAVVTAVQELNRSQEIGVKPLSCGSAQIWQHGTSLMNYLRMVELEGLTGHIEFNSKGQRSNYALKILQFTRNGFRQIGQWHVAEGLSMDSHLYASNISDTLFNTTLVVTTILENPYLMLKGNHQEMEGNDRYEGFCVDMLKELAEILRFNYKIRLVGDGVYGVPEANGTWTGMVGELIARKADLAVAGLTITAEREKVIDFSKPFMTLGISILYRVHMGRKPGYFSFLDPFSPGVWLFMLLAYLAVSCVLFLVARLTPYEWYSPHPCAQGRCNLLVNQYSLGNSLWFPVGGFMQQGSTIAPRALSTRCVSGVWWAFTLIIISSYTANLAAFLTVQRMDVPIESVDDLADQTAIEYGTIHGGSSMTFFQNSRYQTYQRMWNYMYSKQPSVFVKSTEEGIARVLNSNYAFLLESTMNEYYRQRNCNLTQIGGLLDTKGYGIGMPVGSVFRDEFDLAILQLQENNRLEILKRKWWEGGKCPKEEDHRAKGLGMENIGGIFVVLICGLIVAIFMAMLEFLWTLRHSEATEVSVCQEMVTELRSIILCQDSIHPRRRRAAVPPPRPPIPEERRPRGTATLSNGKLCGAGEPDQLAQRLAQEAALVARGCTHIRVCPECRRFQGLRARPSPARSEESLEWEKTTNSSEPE
# Test: kainate binding assay, membranes of EAA1a-producing COS cells
# Protocol: Transfected cells in the frozen state were resuspended in ice-cold distilled water using a hand homogenizer and centrifuged for 20 minutes at 50,000 g. The supernatant was discarded and the membrane pellet stored frozen at -70° C.
# COS cell membrane pellets were suspended in ice cold 50 mM Tris-HCl (pH 7.55, 5° C.) and placed inside Spectrapor 7 (EDTA-treated, sulfur-free) dialysis tubing. The suspension was placed in 4 liters of ice cold 50 mM Tris-HCl (pH 7.55, 5° C.) and dialyzed for 16-24 hours at 5° C. in order to remove endogenous glutamate that would compete for binding. The tissue suspension was recovered from the tubing along with a small volume of buffer used to rinse the tubing. This resultant membrane preparation was used as tissue source for binding experiments described below.
# Binding assays were then performed, using an amount of COS-derived membrane equivalent to from 25-100 μg as judged by protein determination and selected radiolabelled ligand.
# For kainate binding assays, incubation mixtures consisted of 25-100 μg tissue protein and [vinylidene-^3 H] kainic acid (58 Ci/mmole, 5 nM final) in the cold incubation buffer, 1 ml final volume. Non-specific binding was in the presence of 1 mM L-glutamate. […] Filters were washed twice in 6 ml of the cold incubation buffer, then placed in scintillation vials with 5 ml of Beckman Ready-Safe scintillation cocktail for counting.
structure (smiles),measurement,setting,value
C=C(C)[C@H]1CN[C@H](C(=O)O)[C@H]1CC(=O)O [kainate],kainate binding affinity,"EAA1a-producing COS cell membranes, high affinity category i.e. nanomolar range",high affinity
same,specific binding of labelled kainate,"[3H]-kainate 5 nM labelled ligand, COS cell membranes, non-specific binding with 1 mM L-glutamate, FIG. 5",specific [^3 H]-kainate binding
